Experimental data reported in PubChem BioAssay (NCI).
Where “and” joins values, the source holds several entries; their conditions need not be identical. Equal values may be shown once.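 A five-concentration, 48-hour dose response in 96-well plates underlies each endpoint, interpolated linearly between surrounding concentrations. GI50 is the concentration that inhibits growth by half. TGI denotes the concentration required for complete inhibition of growth.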

Each compound was assayed on MDA-MB-468 breast (assay: growth of human tumour cells (NCI), 48 h).
With O=C(CC1Sc2ccccc2NC1=O)NNc1ccc(F)cc1 (configuration not stated) the GI50 was greater than 100 µM and the TGI was greater than 100 µM.
O=c1[nH]c2ccccc2n1C1CCN(CCOc2ccccc2)CC1 showed a GI50 of 6.25 µM and a TGI of 57.8 µM.
C=CCN1C(=O)[C@]2(SC1=S)[C@H](c1cccc(Cl)c1)CN(C)[C@]21C(=O)NC2C=CC(Cl)=C[C@H]21 (some centres not stated) gave a GI50 of 3.24 µM and a TGI of 14.3 µM.
Compound CCC(C(=O)[C@@H](C)[C@@H](O)[C@H](C)[C@@H]1O[C@@H]([C@@H](CC)C(=O)ONC(=O)c2ccccc2)CC[C@@H]1C)[C@H]1O[C@]2(C=CC(=O)[C@]3(CC[C@@](C)([C@H]4CC[C@](O)(CC)[C@H](C)O4)O3)O2)[C@H](C)C[C@@H]1C (some centres not stated) has a GI50 of 0.0992 µM and a TGI of 0.979 µM.
O=C(c1ccc(Nc2nccc(NCCCCNc3ccnc4cc(Cl)ccc34)n2)cc1)N1CCCCC1 gave a GI50 of 1.47 µM and a TGI of 3.47 µM.
Compound OCC1OC(n2cnc3c(NCc4ccco4)ncnc32)C(O)C1O (configuration not stated) has a GI50 of 1.36 µM and a TGI of 3.16 µM.
Work on C[C@@H](Oc1cc(-c2cnn(C3CCNCC3)c2)cnc1N)c1c(Cl)cc(F)cc1Cl yielded a GI50 of 1.31 µM and a TGI of 2.92 µM.
With CCOC(=O)c1cc2c(n1Cc1cc(OC)cc(OC)c1)-c1oncc1CC2 the GI50 was 0.0364 µM and the TGI was 0.268 µM.
With Cn1cc(-c2nc(-c3cn(C)c4ncccc34)cs2)c2ccccc21 the GI50 was 0.169 µM and the TGI was 0.719 µM.
In the case of NC(Cc1c[nH]c2cccc(F)c12)C(=O)O (configuration not stated), the GI50 is reported as 50.8 µM and 494 µM and the TGI is reported as 2050 µM.
Work on CN(c1ccc(F)cc1)S(=O)(=O)c1ccc(-c2cnc(C3CC3)o2)cc1 yielded a GI50 of 0.0544 µM and a TGI of 8.98 µM.
Compound CC[C@H](CO)Nc1ccc2ncc(C#Cc3cncc(C(=O)Nc4ccc(CN5CCN(C)CC5)c(C(F)(F)F)c4)c3)n2n1 has a GI50 of 0.126 µM and a TGI of 0.376 µM.
With O=C(CCl)Nc1ccc(Cc2ccc(NC(=O)CCl)cc2)cc1 the GI50 was 2.03 µM and the TGI was 5.57 µM.
Work on CCOC(=O)c1cc(C(=O)c2cc(OC)c(OC)c(OC)c2)n2ccc(-c3cc[n+](CC(=O)c4cc(OC)c(OC)c(OC)c4)cc3)cc12 yielded a GI50 of 1.94 µM and a TGI of 3.81 µM.
With COc1cc(NCCC2CCCCN2)c2ncccc2c1OC (configuration not stated) the GI50 was 2.07 µM and the TGI was 4.18 µM.
Work on CC1(C)CC[C@]2(CO)CC[C@]3(C)C(=CC[C@@H]4[C@@]5(C)CCNCC(C)(C)[C@@H]5CC[C@]43C)[C@@H]2C1 yielded a GI50 of 1.8 µM and a TGI of 3.79 µM.
Nc1no[n+]([O-])c1-c1nnc2c(n1)-c1ccccc1C2=O was tested, and the GI50 was 2.19 µM and the TGI was 5.64 µM.
CCC(=C(c1ccc(OCCN2CCCC2)cc1)c1ccc(OCCN2CCCC2)cc1)c1ccc(Cl)cc1 was tested, and the GI50 was 0.533 µM and the TGI was 1.07 µM.
Compound CCN(CC)CCCNc1cc(OC)c(OC)c2cccnc12 has a GI50 of 3.85 µM and a TGI of 14.6 µM.
With COc1ccc(NC(=O)c2cccc(C3CCc4c(cc(OC)c(OC)c4OC)O3)c2)cc1 (configuration not stated) the GI50 was 2.6 µM and the TGI was greater than 100 µM.
CC[Si](CC)(CC)OC1[C@@H](O[Si](CC)(CC)CC)[C@@H](CNC(=O)NC)O[C@H]1n1cnc2c(NC(=O)Nc3ccccc3)ncnc21 (some centres not stated) was tested, and the GI50 was 4.24 µM and the TGI was 57.4 µM.
CN(C)C/C=C/C(=O)Nc1cc2c(Nc3cccc(Cl)c3F)ncnc2cc1OCCOC(F)F was tested, and the GI50 was less than 0.01 µM.
Work on CCOC(=O)c1cc2c(n1Cc1ccccc1OC)-c1oncc1CCC2 yielded a GI50 of 2.95 µM and a TGI greater than 100 µM.
Work on CC(=O)/C=C/c1ccc(N(CCO)Cc2ccc(C(C)(C)C)cc2)cc1 yielded a GI50 of 31.1 µM and a TGI of 127 µM.
C=C1C(=O)O[C@H]2[C@H]1CC/C(COC(=O)N[C@H](Cc1c[nH]c3ccccc13)C(=O)OC)=C\CC[C@@]1(C)O[C@@H]21 showed a GI50 of 1.02 µM and a TGI of 3.92 µM.
Work on Cc1nn(-c2ccccc2)c2nc(C)n(-c3ccc(Br)cc3)c(=O)c12 yielded a GI50 of 0.476 µM and a TGI of 53 µM.
Compound Nc1nc(N)c(-c2ccc(Cl)c(Cl)c2)c(CP(Cl)(Cl)(Cl)Br)n1 has a GI50 of 7.45 µM and a TGI of 36.1 µM.
Work on CC(C)(C)OC(=O)N1Cc2cc3ccccc3nc2C1CO (configuration not stated) yielded a GI50 greater than 100 µM and a TGI greater than 100 µM.
CC1(C)CN(CCNc2nccc(-c3c(-c4cccc(O)c4)nc4sccn34)n2)S(=O)(=O)N1 gave a GI50 of 7.03 µM and a TGI greater than 33.2 µM.
For COc1cc(/C=C/c2ccnc3ccccc23)cc(OC)c1OC, the GI50 was 1.19 µM and the TGI was 5.67 µM.
Cc1ccc(NC2=CC(=O)C(=O)c3ccccc32)cc1 was tested, and the GI50 was 1.97 µM and the TGI was 5.74 µM.
C=C1C(=O)O[C@H]2[C@H]1CC/C(COC(=O)/C=C\C(=O)NCc1ccc(Cn3c(=O)sn(-c4ccc(Cl)cc4)c3=O)cc1)=C\CC[C@@]1(C)O[C@@H]21 gave a GI50 of 0.568 µM and a TGI of 1.37 µM.
Compound O=C(Nc1ccc(Cl)cc1)N1CCN(c2ccc3nncn3n2)CC1 has a GI50 of 26.9 µM and a TGI of 99.3 µM.
Compound CN1CCN(c2ccc(Nc3nc(NCCCNS(=O)(=O)c4ccc(F)cc4)c4sccc4n3)cc2)CC1 has a GI50 of 10.2 µM and a TGI of 22.6 µM.
Compound COc1ccc2nc3ccccc3c(NCc3ccccc3)c2c1 has a GI50 of 1.77 µM and a TGI of 4.05 µM.
For CCN(CC)CCCC(C)Nc1ccnc(/C=C/c2ccc(Cl)cc2)c1 (configuration not stated), the GI50 was 1.45 µM and the TGI was 2.86 µM.
In the case of CCCCC[C@H]1C/C=C2/C(=O)C(Cl)=C[C@@H]2C/C=C\CCCC(=O)O1, the GI50 is reported as 0.357 µM and the TGI is reported as 1.04 µM.
NCCCNc1nc2ccccc2c2c(=O)c3cc(F)cc(Cl)c3sc12 was tested, and the GI50 was 1.69 µM and the TGI was 3.71 µM.
COc1cccc(-c2nn(-c3ccccc3)cc2-c2ccnc(NCCCNS(=O)(=O)c3ccc(C(F)(F)F)cc3)c2)c1 was tested, and the GI50 was 3.11 µM and the TGI was greater than 100 µM.
